We go through three compounds from US20100055799A1, “TEST AGENT FOR DIAGNOSING DYSPEPSIA” (priority 2006, published 2010).

SMILES strings stand for the structures. Where two headings read alike, the source gives them in different places.

The format of data set [1] is physicochemical.
Data set [2] in a line: 2-13C uracil concentration in plasma of patients suspected of post-operative gastroparesis. Particulars: 20 minutes after oral 100 mg 2-13C uracil (Example 2 granules); patients with decreased or insufficient gastric-emptying function versus normal type. The format is in vivo, human.
The test system of data set [3] is gastric-emptying function. Nature of the data set: 13C breath test in delayed gastric-emptying model rats (propantheline pretreatment). The format is in vivo, rat. Conditions: propantheline 1 mg/kg i.v. 5 min before 10 mg/kg oral 2-13C uracil; expired air 5-60 min. The method, then:
“Propantheline”, an anticholinergic agent, was intravenously administered to rats (female, Wister rat, 8 weeks old: n=3) in such an amount of 1 mg/kg to obtain model animals whose gastric-emptying function was decreased (a delayed gastric-emptying model). […] The expired air samples were collected over time, and the ^13CO2 concentration in each expired air sample was measured.

In the case of `O=c1cc[nH][13c](=O)[nH]1` [2-^13C uracil], the Solubility was found to be 0.28 w/v % in data set [1] (pH 2), 0.28 w/v % in data set [1] (pH 4), 0.28 w/v % in data set [1] (pH 6) and 0.29 w/v % in data set [1] (pH 8). Also, the “2-13C uracil concentrations in plasma” value in data set [2] is listed as “lowered”.
On to `CC(C)[N+](C)(CCOC(=O)C1c2ccccc2Oc2ccccc21)C(C)C` [propantheline, Propantheline], for which, in data set [3], the “13CO2 concentration (Δ13C value) excreted in expired air versus normal rats” value is “significantly lower”.
With `O=c1cc[nH]c(=O)[nH]1` [uracil], in data set [1] (pH 2), the “change of solubility depending on the pH of the solution” value was “almost unchanged”.
